# Measured values taken from PubChem BioAssay (NCI).
#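 Test compounds were applied to cells in 96-well plates for 48 hours at 5 doses. TGI denotes the concentration required for complete inhibition of growth.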
# Tests used:
# Experiment in all cases: inhibition of tumour cell growth, NCI panel, 48 h
# [1] = tested on: HS 578T breast
# [2] = tested on: M14 melanoma
# [3] = tested on: NCI-H226 lung
# [4] = tested on: MDA-MB-435
# [5] = tested on: COLO 205 colon
# [6] = tested on: IGROV1 ovarian
# [7] = tested on: SK-MEL-28 melanoma
# [8] = tested on: KM12 colon
# [9] = tested on: RXF 393 renal
# [10] = tested on: SK-MEL-2 melanoma
# [11] = tested on: BT-549 breast
# [12] = tested on: MCF7 breast
# [13] = tested on: U251 CNS
# [14] = tested on: MALME-3M melanoma
# [15] = tested on: SK-MEL-5 melanoma
# [16] = tested on: A498 renal
# [17] = tested on: CAKI-1 renal
# [18] = tested on: PC-3 prostate
# [19] = tested on: UO-31 renal
# [20] = tested on: HCT-116 colon
# [21] = tested on: K-562 leukemia
# [22] = tested on: RPMI-8226 leukemia
# [23] = tested on: HCT-15 colon
# [24] = tested on: HCC-2998 colon
# [25] = tested on: HL-60(TB) leukemia
# [26] = tested on: OVCAR-5 ovarian
# [27] = tested on: NCI-H522 lung
# [28] = tested on: SNB-19 CNS
# [29] = tested on: SN12C renal
# [30] = tested on: OVCAR-8 ovarian
# [31] = tested on: NCI-H23 lung
# [32] = tested on: NCI-H460 lung
# [33] = tested on: 786-0 renal
# [34] = tested on: SW-620 colon
# [35] = tested on: NCI/ADR-RES ovarian
# [36] = tested on: OVCAR-3 ovarian
# [37] = tested on: MDA-MB-231 breast
# [38] = tested on: HOP-62 NSCLC
# [39] = tested on: MOLT-4 leukemia
# [40] = tested on: SR leukemia
# [41] = tested on: LOX IMVI melanoma
# [42] = tested on: SF-539 CNS
# [43] = tested on: HT29 colon
# [44] = tested on: EKVX NSCLC
# [45] = tested on: UACC-62 melanoma
# [46] = tested on: OVCAR-4 ovarian
# [47] = tested on: ACHN renal
# [48] = tested on: TK-10 renal
# [49] = tested on: SF-268 CNS
# [50] = tested on: A549 NSCLC
# [51] = tested on: DU-145 prostate
# [52] = tested on: SF-295 CNS
# [53] = tested on: UACC-257 melanoma
# [54] = tested on: HOP-92 NSCLC
# [55] = tested on: MDA-N
# [56] = tested on: CCRF-CEM leukemia
# [57] = tested on: T-47D breast
# [58] = tested on: SNB-75 CNS
# [59] = tested on: SK-OV-3 ovarian
structure (smiles),measurement,setting,value
CC(=O)C(C(C)=O)[C@@H]1OC(C)(C)O[C@@H]1[C@H]1COC(C)(C)O1,TGI,[1],> 100 µM
same,TGI,[2],> 100 µM
same,TGI,[3],> 100 µM
same,TGI,[4],> 100 µM
same,TGI,[5],> 100 µM
same,TGI,[6],> 100 µM
same,TGI,[7],> 100 µM
same,TGI,[8],> 100 µM
same,TGI,[9],> 100 µM
same,TGI,[10],> 100 µM
same,TGI,[11],> 100 µM
same,TGI,[12],> 100 µM
same,TGI,[13],> 100 µM
same,TGI,[14],52.4 µM
same,TGI,[15],> 100 µM
same,TGI,[16],> 100 µM
same,TGI,[17],> 100 µM
same,TGI,[18],> 100 µM
same,TGI,[19],> 100 µM
same,TGI,[20],> 100 µM
same,TGI,[21],> 100 µM
same,TGI,[22],> 100 µM
same,TGI,[23],> 100 µM
same,TGI,[24],> 100 µM
same,TGI,[25],> 100 µM
same,TGI,[26],> 100 µM
same,TGI,[27],81.2 µM
same,TGI,[28],> 100 µM
same,TGI,[29],44.9 µM
same,TGI,[30],> 100 µM
same,TGI,[31],> 100 µM
same,TGI,[32],> 100 µM
same,TGI,[33],> 100 µM
same,TGI,[34],> 100 µM
same,TGI,[35],> 100 µM
same,TGI,[36],> 100 µM
same,TGI,[37],> 100 µM
same,TGI,[38],> 100 µM
same,TGI,[39],> 100 µM
same,TGI,[40],> 100 µM
same,TGI,[41],> 100 µM
same,TGI,[42],> 100 µM
same,TGI,[43],> 100 µM
same,TGI,[44],79.1 µM
same,TGI,[45],> 100 µM
same,TGI,[46],> 100 µM
same,TGI,[47],> 100 µM
same,TGI,[48],> 100 µM
same,TGI,[49],> 100 µM
same,TGI,[50],> 100 µM
same,TGI,[51],> 100 µM
same,TGI,[52],> 100 µM
same,TGI,[53],> 100 µM
same,TGI,[54],> 100 µM
same,TGI,[55],70.1 µM
COC(=O)c1ccccc1/C=C1\Cc2ccc3c(c2C1=O)CCCC3,TGI,[1],> 100 µM
same,TGI,[2],> 100 µM
same,TGI,[3],> 100 µM
same,TGI,[4],> 100 µM
same,TGI,[5],> 100 µM
same,TGI,[6],> 100 µM
same,TGI,[56],> 100 µM
same,TGI,[7],> 100 µM
same,TGI,[8],> 100 µM
same,TGI,[10],> 100 µM
same,TGI,[11],> 100 µM
same,TGI,[12],> 100 µM
same,TGI,[13],> 100 µM
same,TGI,[14],> 100 µM
same,TGI,[16],> 100 µM
same,TGI,[17],> 100 µM
same,TGI,[18],> 100 µM
same,TGI,[19],> 100 µM
same,TGI,[20],> 100 µM
same,TGI,[21],> 100 µM
same,TGI,[22],> 100 µM
same,TGI,[23],> 100 µM
same,TGI,[24],> 100 µM
same,TGI,[26],> 100 µM
same,TGI,[27],> 100 µM
same,TGI,[28],> 100 µM
same,TGI,[29],> 100 µM
same,TGI,[30],> 100 µM
same,TGI,[31],> 100 µM
same,TGI,[32],> 100 µM
same,TGI,[33],> 100 µM
same,TGI,[57],> 100 µM
same,TGI,[34],> 100 µM
same,TGI,[58],> 100 µM
same,TGI,[35],> 100 µM
same,TGI,[36],> 100 µM
same,TGI,[37],> 100 µM
same,TGI,[59],> 100 µM
same,TGI,[38],> 100 µM
same,TGI,[39],> 100 µM
same,TGI,[40],> 100 µM
same,TGI,[41],> 100 µM
same,TGI,[42],> 100 µM
same,TGI,[43],> 100 µM
same,TGI,[44],> 100 µM
same,TGI,[45],> 100 µM
same,TGI,[46],> 100 µM
same,TGI,[47],> 100 µM
same,TGI,[48],> 100 µM
same,TGI,[49],> 100 µM
same,TGI,[50],> 100 µM
same,TGI,[51],> 100 µM
same,TGI,[52],> 100 µM
same,TGI,[53],> 100 µM
same,TGI,[55],> 100 µM
